15 compounds from patent US20240254118A1, “PRMT5 INHIBITORS AND USES THEREOF” (Gilead Sciences, Inc., priority 2022, published 2024) can be followed below.

pEC50: −log10 of the molar value.

Test [1] relates to SDMA signal (PRMT5 inhibition) in HCT116 MTAP-deleted cells. Nature of the test: Symmetric di-methyl arginine image-based high content screen assay (SDMA assay), HCT116 MTAP-deleted. Format: cell-based. Particulars: SDMA assay; for pEC50: Homo sapiens, HCT-116, 72 h, 3 days of treatment, cell line not given, taken as HCT116 MTAP-deleted, read-out: EC50 (SDMA assay); for EC50 selectivity (SDMA assay): taken as HCT116 WT versus MTAP-deleted. The method, boiled down: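 HCT116 MTAP-deleted cells treated with compound until Day 3, then formalin-fixed, permeabilized and immunostained for SDMA, with DAPI nuclear counterstain. Imaged by high-content microscopy; SDMA read-out is mean Alexa 488 intensity per DAPI-defined cell, reflecting PRMT5 inhibition.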

In test [2] the test system is HCT116 MTAP-deleted cells. In words: Cell viability assay (CellTiter-Glo, 7 days), HCT116 MTAP-deleted. Particulars: Homo sapiens, HCT-116, 168 h. For orientation: Cellular ATP, detected with luciferase, serves as a proxy for viable cell number.

The pEC50 is −log10 of the EC50, conventionally taken in molar units. By CC50 is commonly meant the concentration giving 50% cytotoxicity.

Take `CCN(C(=O)C1CC1)N(Cc1ccc(C(F)(F)F)cn1)C(=O)c1ccc2nc(N)c3cnn(C)c3c2c1` [Example 288, 4-amino-N′-(cyclopropanecarbonyl)-N′-ethyl-1-methyl-N-((5-(trifluoromethyl)pyridin-2-yl)methyl)-1H-pyrazolo[4,3-c]quinoline-8-carbohydrazide]: in test [1], the pEC50 was more than 9.00 and the “EC50 selectivity (SDMA assay)” value is given as 267. For the same compound, in test [2], the CC50 is less than 100 nM.
The like results for `CC(=O)N(C)N(Cc1cccc2c1nnn2C)C(=O)c1ccc2nc(N)c3cnn(C)c3c2c1` [Example 289, N′-acetyl-4-amino-N′,1-dimethyl-N-((1-methyl-1H-benzo[d][1,2,3]triazol-4-yl)methyl)-1H-pyrazolo[4,3-c]quinoline-8-carbohydrazide] were, in that order, 8.30 to 9.00, 155 and 100 to 1000 nM.
On the same counts, the results for `Cn1ncc2c(N)nc3ccc(C(=O)N(Cc4ccc(C(F)(F)F)cn4)N4CCOCC4(C)C)cc3c21` [Example 292, 4-amino-N-(3,3-dimethylmorpholino)-1-methyl-N-((5-(trifluoromethyl)pyridin-2-yl)methyl)-1H-pyrazolo[4,3-c]quinoline-8-carboxamide] are 8.30 to 9.00, 80 and 100 to 1000 nM.
For the compound `C[C@@H]1CN(N(Cc2ccc(C(F)(F)F)cn2)C(=O)c2cc3c(cc2F)nc(N)c2cnn(C)c23)C[C@H](C)O1` [Example 293, 4-amino-N-((2S,6R)-2,6-dimethylmorpholino)-7-fluoro-1-methyl-N-((5-(trifluoromethyl)pyridin-2-yl)methyl)-1H-pyrazolo[4,3-c]quinoline-8-carboxamide], in test [1], the pEC50 is more than 9.00 and the “EC50 selectivity (SDMA assay)” value worked out at 9. In test [2], this compound displayed a CC50 of less than 100 nM.
For the compound `Cn1ncc2c(N)nc3cc(F)c(C(=O)N(Cc4ccc(C(F)(F)F)cn4)NC(=O)C4(F)CC4)cc3c21` [Example 294, 4-amino-7-fluoro-N′-(1-fluorocyclopropane-1-carbonyl)-1-methyl-N-((5-(trifluoromethyl)pyridin-2-yl)methyl)-1H-pyrazolo[4,3-c]quinoline-8-carbohydrazide], in test [1], the pEC50 was more than 9.00 and the “EC50 selectivity (SDMA assay)” value turned out to be 97. In addition, in test [2], the CC50 was less than 100 nM.
On the same counts, the results for `Cn1ncc2c(N)nc3ccc(C(=O)N(Cc4ccc(C(F)(F)F)cn4)n4ccc5cccnc54)cc3c21` [Example 295, 4-amino-1-methyl-N-(1H-pyrrolo[2,3-b]pyridin-1-yl)-N-((5-(trifluoromethyl)pyridin-2-yl)methyl)-1H-pyrazolo[4,3-c]quinoline-8-carboxamide] are more than 9.00, 18 and less than 100 nM.
The like results for `Cn1ncc2c(N)nc3cc(F)c(C(=O)N(Cc4ccc(C(F)(F)F)cn4)n4ccc5cccnc54)cc3c21` [Example 296, 4-amino-7-fluoro-1-methyl-N-(1H-pyrrolo[2,3-b]pyridin-1-yl)-N-((5-(trifluoromethyl)pyridin-2-yl)methyl)-1H-pyrazolo[4,3-c]quinoline-8-carboxamide] were, in that order, more than 9.00, 27 and less than 100 nM.
The like results for `Cn1ncc2c(N)nc3ccc(C(=O)N(Cc4ccc(C(F)(F)F)cn4)N4C[C@@H]5C[C@H]4CO5)cc3c21` [Example 297, 4-amino-N-((1S,4S)-2-oxa-5-azabicyclo[2.2.1]heptan-5-yl)-1-methyl-N-((5-(trifluoromethyl)pyridin-2-yl)methyl)-1H-pyrazolo[4,3-c]quinoline-8-carboxamide] were, in that order, 8.30 to 9.00, 151 and 100 to 1000 nM.
Regarding `Cn1ncc2c(N)nc3cc(F)c(C(=O)N(Cc4ccc(C(F)(F)F)cn4)N4C[C@@H]5C[C@H]4CO5)cc3c21` [Example 298, 4-amino-N-((1S,4S)-2-oxa-5-azabicyclo[2.2.1]heptan-5-yl)-7-fluoro-1-methyl-N-((5-(trifluoromethyl)pyridin-2-yl)methyl)-1H-pyrazolo[4,3-c]quinoline-8-carboxamide], in test [1], the pEC50 was more than 9.00 and the “EC50 selectivity (SDMA assay)” value is recorded as 23. This compound also showed a CC50 in test [2] of less than 100 nM.
Consider `Cn1ncc2c(N)nc3ccc(C(=O)N(Cc4ccc(C(F)(F)F)cn4)N4C[C@H]5C[C@@H]4CO5)cc3c21` [Example 299, 4-amino-N-((1R,4R)-2-oxa-5-azabicyclo[2.2.1]heptan-5-yl)-1-methyl-N-((5-(trifluoromethyl)pyridin-2-yl)methyl)-1H-pyrazolo[4,3-c]quinoline-8-carboxamide], for which, in test [1], the pEC50 was more than 9.00 and the “EC50 selectivity (SDMA assay)” value worked out at 144. The compound also displayed a half-maximal cytotoxic concentration (CC50) in test [2] of less than 100 nM.
On the same counts, the results for `Cn1ncc2c(N)nc3cc(F)c(C(=O)N(Cc4ccc(C(F)(F)F)cn4)N4C[C@H]5C[C@@H]4CO5)cc3c21` [Example 300, 4-amino-N-((1R,4R)-2-oxa-5-azabicyclo[2.2.1]heptan-5-yl)-7-fluoro-1-methyl-N-((5-(trifluoromethyl)pyridin-2-yl)methyl)-1H-pyrazolo[4,3-c]quinoline-8-carboxamide] are more than 9.00, 24 and less than 100 nM.
Turning to `CC(=O)N(C)N(Cc1cccc2c1OC(F)(F)O2)C(=O)c1cc2c(cc1F)nc(N)c1cnn(C)c12` [Example 301, N′-acetyl-4-amino-N-((2,2-difluorobenzo[d][1,3]dioxol-4-yl)methyl)-7-fluoro-N′,1-dimethyl-1H-pyrazolo[4,3-c]quinoline-8-carbohydrazide], in test [1], the pEC50 is more than 9.00 and the “EC50 selectivity (SDMA assay)” value is reported as 106. Besides, the CC50 in test [2] was less than 100 nM.
The like results for `CN(C(=O)C1CC1)N(Cc1cccc2c1OC(F)(F)O2)C(=O)c1ccc2nc(N)c3cnn(C)c3c2c1` [Example 302, 4-amino-N′-(cyclopropanecarbonyl)-N-((2,2-difluorobenzo[d][1,3]dioxol-4-yl)methyl)-N′,1-dimethyl-1H-pyrazolo[4,3-c]quinoline-8-carbohydrazide] were, in that order, 8.30 to 9.00, 248 and less than 100 nM.
For `CN(C(=O)C1CC1)N(Cc1cccc2c1OC(F)(F)O2)C(=O)c1cc2c(cc1F)nc(N)c1cnn(C)c12` [Example 303, 4-amino-N′-(cyclopropanecarbonyl)-N-((2,2-difluorobenzo[d][1,3]dioxol-4-yl)methyl)-7-fluoro-N′,1-dimethyl-1H-pyrazolo[4,3-c]quinoline-8-carbohydrazide], in test [1], the negative-log EC50 (pEC50) was more than 9.00 and the “EC50 selectivity (SDMA assay)” value is given as 58. Further, the CC50 in test [2] is less than 100 nM.
For `CN(C(=O)C1CC1)N(Cc1ccc(C(F)(F)F)cn1)C(=O)c1cc2c(cc1Cl)nc(N)c1cnn(C)c12` [Example 304, 4-amino-7-chloro-N′-(cyclopropanecarbonyl)-N′,1-dimethyl-N-((5-(trifluoromethyl)pyridin-2-yl)methyl)-1H-pyrazolo[4,3-c]quinoline-8-carbohydrazide], in test [1], the pEC50 was 8.30 to 9.00 and the “EC50 selectivity (SDMA assay)” value was determined as 15. Also, the CC50 in test [2] was less than 100 nM.
